Measured values taken from patent US20220119354A1, “DIAMINO-SUBSTITUTED PYRIDINES AND PYRIMIDINES AS HERBICIDES” (FMC Corporation, priority 2019, published 2022).

Experiments:
Type in all cases: in vivo
[1] = tested on: ducksalad (Heteranthera limosa); test: Test B flooded paddy test, ducksalad; settings: Flood, 250 g ai/ha, applied to paddy water, 2-leaf stage, visual evaluation after 13 to 15 d
Method: (§1) Plant species in the flooded paddy test selected from rice (Oryza sativa), sedge, umbrella (small-flower umbrella sedge, Cyperus difformis), ducksalad (Heteranthera limosa), and barnyardgrass (Echinochloa crus-galli) were grown to the 2-leaf stage for testing. At the time of treatment, test pots were flooded to 3 cm above the soil surface, treated by application of test compounds directly to the paddy water, and then maintained at that water depth for the duration of the test. Treated plants and controls were maintained in a greenhouse for 13 to 15 d, after which time all species were compared to controls and visually evaluated. Plant response ratings, summarized in Table B, are based on a scale of 0 to 100 where 0 is no effect and 100 is complete control. A dash (-) response means no test result.

[2] = tested on: ryegrass, Italian (Lolium multiflorum); test: Test A preemergence, Italian ryegrass; settings: 0 to 100 scale
Excerpt: (§2) Seeds of plant species selected from barnyardgrass (Echinochloa crus-galli), kochia (Kochia scoparia), ragweed (common ragweed, Ambrosia elatior), ryegrass, Italian (Lolium multiflorum), foxtail, giant (Setaria faberii), foxtail, green (Setaria viridis), and pigweed (Amaranthus retroflexus) were planted into a blend of loam soil and sand and treated preemergence with a directed soil spray using test chemicals formulated in a non-phytotoxic solvent mixture which included a surfactant.
(§3) At the same time, plants selected from these weed species and also wheat (Triticum aestivum), corn (Zea mays), blackgrass (Alopecurus myosuroides), and galium (catchweed bedstraw, Galium aparine) were planted in pots containing the same blend of loam soil and sand and treated with postemergence applications of test chemicals formulated in the same manner. Plants ranged in height from 2 to 10 cm and were in the one- to two-leaf stage for the postemergence treatment. Treated plants and untreated controls were maintained in a greenhouse for approximately 10 d, after which time all treated plants were compared to untreated controls and visually evaluated for injury. Plant response ratings, summarized in Table A, are based on a 0 to 100 scale where 0 is no effect and 100 is complete control. A dash (-) response means no test result.

[3] = tested on: pigweed (Amaranthus retroflexus); test: Test A postemergence, pigweed; settings: 0 to 100 scale
Excerpt: as §2, §3

[4] = tested on: sedge, umbrella (small-flower umbrella sedge, Cyperus difformis); test: Test B flooded paddy test, umbrella sedge; settings: Flood, 250 g ai/ha, applied to paddy water, 2-leaf stage, visual evaluation after 13 to 15 d
Method: as §1

[5] = tested on: ryegrass, Italian (Lolium multiflorum); test: Test A postemergence, Italian ryegrass; settings: 0 to 100 scale
Excerpt: as §2, §3

[6] = tested on: foxtail, giant (Setaria faberii); test: Test A postemergence, giant foxtail; settings: 0 to 100 scale
Excerpt: as §2, §3

[7] = tested on: barnyardgrass (Echinochloa crus-galli); test: Test A postemergence, barnyardgrass; settings: 0 to 100 scale
Excerpt: as §2, §3

[8] = tested on: galium (catchweed bedstraw, Galium aparine); test: Test A postemergence, galium; settings: 0 to 100 scale
Excerpt: as §2, §3

[9] = tested on: barnyardgrass (Echinochloa crus-galli); test: Test A preemergence, barnyardgrass; settings: 0 to 100 scale
Excerpt: as §2, §3

[10] = tested on: wheat (Triticum aestivum); test: Test A postemergence, wheat; settings: 0 to 100 scale
Excerpt: as §2, §3

[11] = tested on: blackgrass (Alopecurus myosuroides); test: Test A postemergence, blackgrass; settings: 0 to 100 scale
Excerpt: as §2, §3

kochia (Kochia scoparia) [12] = test: Test A postemergence, kochia; settings: 0 to 100 scale
Excerpt: as §2, §3

corn (Zea mays) = test: Test A postemergence, corn; settings: 0 to 100 scale
Excerpt: as §2, §3

rice (Oryza sativa) = test: Test B flooded paddy test, rice; settings: Flood, 250 g ai/ha, applied to paddy water, 2-leaf stage, visual evaluation after 13 to 15 d
Method: as §1

[13] = tested on: ragweed (common ragweed, Ambrosia elatior); test: Test A postemergence, ragweed; settings: 0 to 100 scale
Excerpt: as §2, §3

[14] = tested on: barnyardgrass (Echinochloa crus-galli); test: Test B flooded paddy test, barnyardgrass; settings: Flood, 250 g ai/ha, applied to paddy water, 2-leaf stage, visual evaluation after 13 to 15 d
Method: as §1

[15] = tested on: foxtail, giant (Setaria faberii); test: Test A preemergence, giant foxtail; settings: 0 to 100 scale
Excerpt: as §2, §3

kochia (Kochia scoparia) [16] = test: Test A preemergence, kochia; settings: 0 to 100 scale
Excerpt: as §2, §3

[17] = tested on: pigweed (Amaranthus retroflexus); test: Test A preemergence, pigweed; settings: 0 to 100 scale
Excerpt: as §2, §3

[18] = 125 g ai/ha, 0 is no effect, 100 is complete control

Compound | Plant response rating, Ducksalad (0 to 100 scale, 0 is no effect, 100 is complete control) [1] | Plant response rating, Pigweed ([3]; 125 g ai/ha) | Plant response rating, Pigweed ([3]; 500 g ai/ha) | Plant response rating, Sedge, Umbrella (0 to 100 scale, 0 is no effect, 100 is complete control) [4] | Plant response rating, Ryegrass, Italian ([5]; 125 g ai/ha) | Plant response rating, Ryegrass, Italian ([5]; 500 g ai/ha) | Plant response rating, Foxtail, Giant ([6]; 125 g ai/ha) | Plant response rating, Foxtail, Giant ([6]; 500 g ai/ha) | Plant response rating, Barnyardgrass ([7]; 125 g ai/ha) | Plant response rating, Barnyardgrass ([7]; 500 g ai/ha) | Plant response rating, Galium ([8]; 125 g ai/ha) | Plant response rating, Galium ([8]; 500 g ai/ha) | Plant response rating, Barnyardgrass ([9]; 500 g ai/ha) | Plant response rating, Wheat ([10]; 125 g ai/ha) | Plant response rating, Wheat ([10]; 500 g ai/ha) | Plant response rating, Blackgrass ([11]; 125 g ai/ha) | Plant response rating, Blackgrass ([11]; 500 g ai/ha) | Plant response rating, Kochia (kochia (Kochia scoparia) [12]; 125 g ai/ha) | Plant response rating, Kochia (kochia (Kochia scoparia) [12]; 500 g ai/ha) | Plant response rating, Corn (corn (Zea mays); 125 g ai/ha) | also measured
CC(Nc1ncc(C(F)(F)F)c(N)n1)c1cc2ccccc2s1 (racemic) [Compound 16] | 15 | 90 | 100 | 95 | 0 | 40 | 20 | 90 | 30 | 60 | 60 | 80 | 100 | 0 | 0 | 10 | 30 | 70 | 80 | 0 | Plant response rating, Ryegrass, Italian ([2]; 125 g ai/ha): 0; Plant response rating, Ryegrass, Italian ([2]; 500 g ai/ha): 10; Plant response rating, Barnyardgrass ([9]; 125 g ai/ha): 70; Plant response rating, Corn (corn (Zea mays); 500 g ai/ha): 20; Plant response rating, Rice (0 to 100 scale, 0 is no effect, 100 is complete control) (rice (Oryza sativa)): 0; Plant response rating, Ragweed ([13]; 125 g ai/ha): 0; Plant response rating, Ragweed ([13]; 500 g ai/ha): 80; Plant response rating, Barnyardgrass (0 to 100 scale, 0 is no effect, 100 is complete control) [14]: 50; Plant response rating, Foxtail, Giant ([15]; 125 g ai/ha): 50; Plant response rating, Foxtail, Giant ([15]; 500 g ai/ha): 100; Plant response rating, Kochia (kochia (Kochia scoparia) [16]; 125 g ai/ha): 70; Plant response rating, Kochia (kochia (Kochia scoparia) [16]; 500 g ai/ha): 100; Plant response rating, Pigweed ([17]; 125 g ai/ha): 90; Plant response rating, Pigweed ([17]; 500 g ai/ha): 100
Cc1cc(OCC(C)Nc2ncc(C(F)(F)F)c(N)n2)ccc1F (stereo not drawn) [Compound 38] | 0 | 20 | 80 | 0 | 0 | 0 | 0 | 0 | 0 | 0 | 30 | 70 | 90 | 0 | 0 | 0 | 0 | 0 | 30 | 0 | Barnyardgrass plant response rating [9, 18]: 30; Plant response rating, Corn (corn (Zea mays); 500 g ai/ha): 0; Plant response rating, Rice (0 to 100 scale, 0 is no effect, 100 is complete control) (rice (Oryza sativa)): 0; Plant response rating, Ragweed ([13]; 125 g ai/ha): 0; Plant response rating, Ragweed ([13]; 500 g ai/ha): 0; Plant response rating, Barnyardgrass (0 to 100 scale, 0 is no effect, 100 is complete control) [14]: 0; Foxtail, Giant plant response rating [15, 18]: 20; Plant response rating, Foxtail, Giant ([15]; 500 g ai/ha): 90; Kochia plant response rating (kochia (Kochia scoparia) [16]; [18]): 0; Plant response rating, Kochia (kochia (Kochia scoparia) [16]; 500 g ai/ha): 60; Pigweed plant response rating [17, 18]: 50; Plant response rating, Pigweed ([17]; 500 g ai/ha): 90
